The record followed here is US9145354B2, “Pharmaceutical compounds” (priority 2011, dated 2015).

The inhibition is the percentage by which the read-out fell short of the control.

The target of this test is full length NS3/4a (Hepatitis C virus genotype 1b (isolate BK) (HCV), UniProt P26663). Description: NS3 Protease Assay (Example A), FRET-based. It counts as biochemical. The essentials: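 Full-length NS3/4a, made in-house, with an NS4A/B-derived peptide substrate carrying QXL520 quencher and 5-FAMsp fluorophore. Buffer 50 mM Tris pH8, 20 mM DTT, 1% CHAPS, 10% glycerol, 5% DMSO. Fluorescence followed 30 min at room temperature; IC50 from initial rates of replicate curves.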
full length NS3/4a, sequence (P26663 1027-1657): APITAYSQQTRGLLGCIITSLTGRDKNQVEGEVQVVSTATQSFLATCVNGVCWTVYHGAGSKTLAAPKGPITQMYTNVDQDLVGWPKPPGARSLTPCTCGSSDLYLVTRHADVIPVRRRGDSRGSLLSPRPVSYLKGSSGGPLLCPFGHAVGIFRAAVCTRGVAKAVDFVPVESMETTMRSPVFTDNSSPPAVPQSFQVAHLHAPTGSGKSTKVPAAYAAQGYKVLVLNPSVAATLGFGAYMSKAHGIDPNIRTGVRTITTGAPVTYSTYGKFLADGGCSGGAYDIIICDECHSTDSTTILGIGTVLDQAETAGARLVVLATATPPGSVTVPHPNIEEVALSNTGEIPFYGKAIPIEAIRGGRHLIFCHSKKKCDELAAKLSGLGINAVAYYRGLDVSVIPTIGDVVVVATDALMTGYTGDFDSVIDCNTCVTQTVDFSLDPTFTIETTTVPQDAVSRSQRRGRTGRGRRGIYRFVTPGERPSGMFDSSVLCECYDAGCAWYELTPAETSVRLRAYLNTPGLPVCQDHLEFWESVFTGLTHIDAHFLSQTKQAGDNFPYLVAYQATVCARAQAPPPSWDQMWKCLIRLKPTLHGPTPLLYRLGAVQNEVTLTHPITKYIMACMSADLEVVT

[1] abbreviates: HCV NS3 protease assay, full length NS3/4a, read-out: Assay A IC50 (μM) average.
The mark [2] stands for this setting: stated as IC50 less than 30 μM or at least 40% inhibition at a concentration of 100 μM, read-out: IC50 against the protease activity of the full length NS3/4a.
Setting [3] is: read-out: IC50 against the protease activity of the full length NS3/4a.

Read-outs that look alike come from different tables or passages of the source.

On to `CC[C@@H](NCCCO)c1ccc(Cl)c(C(=O)c2ccccc2)c1F` [Example 181, 3-{[(1R)-1-(3-benzoyl-4-chloro-2-fluorophenyl)propyl]-amino}propan-1-ol], for which the IC50 under setting [1] worked out at 0.26 µM.

With `CC[C@@H](N[C@@H](C)CC(=O)NCCN)c1ccc(Cl)c(C(=O)c2ccc(N)nc2)c1F` [Example 240, (3S)-N-(2-aminoethyl)-3-{[(1 R)-1-{3-[(6-aminopyridin-3-yl)carbonyl]-4-chloro-2-fluorophenyl}propyl]amino}-butanamide], 0.03 µM produced 48% inhibition. For the same compound, the IC50 under setting [2] was under 30 µM.

With `C[C@H](CC(N)=O)N[C@@H](c1ccc(Cl)c(C(=O)c2ccc(N)nc2)c1F)C1CC1` [Example 155, (3R)-3-{[(R)-{3-[(6-aminopyridin-3-yl)carbonyl]-4-chloro-2-fluorophenyl}(cyclo-propyl)methyl]amino}-butanamide], the IC50 is, setting by setting: under setting [1], 1 µM; under setting [3], 1 to 5 µM.

As to `CC[C@@H](N[C@H](C)CC(N)=O)c1ccc(F)c(C(=O)c2ccccc2)c1F` [Example 158, (3R)-3-{[(1R)-1-(3-benzoyl-2,4-difluorophenyl)propyl]-amino}butanamide], under setting [1], the IC50 was found to be 0.35 µM.

With `CC[C@@H](N[C@H](C)CC(N)=O)c1ccc(Cl)c(C(=O)c2cc(C)on2)c1F` [Example 111, (3R)-3-{[(1R)-1-{4-chloro-2-fluoro-3-[(5-methyl-1,2-oxazol-3-yl)carbonyl]-phenyl}-propyl]amino}-butanamide], the IC50 runs as follows: under setting [1], 3.1 µM; under setting [3], 1 to 5 µM.

With `C[C@@H](CC(N)=O)NCc1ccc(Cl)c(C(=O)c2ccccc2)c1F` [Example 281, (3S)-3-{[(3-benzoyl-4-chloro-2-fluorophenyl)methyl]amino}butanamide], under setting [1], the IC50 came out at 0.45 µM.

In turn, `CC[C@@H](N)c1ccc(Cl)c(C(=O)c2ccc3c(n2)NC(=O)CO3)c1F` [Example 58, 6-({3-[(1R)-1-aminopropyl]-6-chloro-2-fluorophenyl}carbonyl)-2H,3H,4H-pyrido[3,2-b][1,4]oxazin-3-one] registered an inhibition at 10 µM (@ 10 uM) of 31%.

With `COc1ccc([C@H](N)C2CC2)c(F)c1C(=O)c1ccc(F)cc1` [Example 196, (R)-cyclopropyl({2-fluoro-3-[(4-fluorophenyl)carbonyl]-4-methoxyphenyl})methanamine], the IC50 was 2.3 µM under setting [1] and 1 to 5 µM under setting [3].

Regarding `CC[C@H](NC(=O)C1CCCNC1)c1ccc(Cl)c(C(=O)c2cccnc2)c1F` (stereo partly drawn) [Example 294, N-[(1S)-1-{4-chloro-2-fluoro-3-[(pyridin-3-yl)carbonyl]phenyl}propyl]piperidine-3-carboxamide], the IC50 was 0.41 µM under setting [1] and under 1 µM under setting [3].

As to `CC[C@@H](N)c1ccc(Cl)c(C(=O)c2cnc(N)cn2)c1F` [Example 3, 5-({3-[(1R)-1-aminopropyl]-6-chloro-2-fluorophenyl}carbonyl)-pyrazin-2-amine], the IC50 reads like this: under setting [1], 1.3 µM; under setting [3], 1 to 5 µM.

With `Nc1ccc(C(=O)c2c(Cl)ccc([C@H](N)C3CC3)c2F)cn1` [Example 47, 5-({3-[(R)-amino(cyclopropyl)methyl]-6-chloro-2-fluorophenyl}carbonyl)pyridin-2-amine], the IC50 was 0.18 µM under setting [1] and under 1 µM under setting [3].

Regarding `N#Cc1ccc(C(=O)c2c(Cl)ccc([C@H](N)C3CC3)c2F)cc1` [Example 32, 4-({3-[(R)-amino(cyclopropyl)methyl]-6-chloro-2-fluorophenyl}carbonyl)benzonitrile], the IC50 under setting [1] came to 0.058 µM and the IC50 under setting [3] was under 1 µM.

Turning to `CC[C@@H](N[C@@H](C)CC(N)=O)c1ccc(Cl)c(C(=O)c2ccncn2)c1F` [Example 99, (3S)-3-{[(1R)-1-{4-chloro-2-fluoro-3-[(pyrimidin-4-yl)carbonyl]phenyl}propyl]-amino}butanamide], under setting [1], the IC50 amounted to 0.25 µM.

In the case of `CC[C@@H](N[C@@H](C)c1cnc[nH]1)c1ccc(Cl)c(C(=O)c2cccnc2)c1F` [Example 305, [(1R)-1-{4-chloro-2-fluoro-3-[(pyridin-3-yl)carbonyl]phenyl}propyl] [(1S)-1-(1H-imidazol-5-yl)ethyl]amine], the IC50 under setting [1] worked out at 1.1 µM and the IC50 under setting [3] lay in the range of 1 to 5 µM.

As to `CC[C@@H](N)c1ccc(Cl)c(C(=O)c2cc(C)on2)c1F` [Example 21, (1R)-1-{4-chloro-2-fluoro-3-[(5-methyl-1,2-oxazol-3-yl)carbonyl]phenyl}propan-1-amine], the IC50 runs as follows: under setting [1], 1 µM; under setting [3], 1 to 5 µM.

For `CC[C@@H](N)c1ccc(Cl)c(C(=O)c2ccc(C#N)nc2)c1F` [Example 34, 5-({3-[(1R)-1-aminopropyl]-6-chloro-2-fluorophenyl}carbonyl)pyridine-2-carbonitrile], the inhibition at 3 µM came to 55%. The IC50 under setting [3] was 1 to 5 µM.

`CC[C@@H](N[C@@H](C)C(N)=O)c1ccc(Cl)c(C(=O)c2cccnc2)c1F` [Example 170, (2S)-2-{[(1R)-1-{4-chloro-2-fluoro-3-[(pyridin-3-yl)carbonyl]phenyl}-propyl]amino}-propanamide] registered an inhibition at 3 µM of 55%. Further, under setting [3], the IC50 was in the range of 1 to 5 µM.

On to `CC[C@@H](N)c1ccc(Cl)c(C(=O)c2cccc(C#N)c2)c1F` [Example 18, 3-({3-[(1R)-1-aminopropyl]-6-chloro-2-fluorophenyl}carbonyl)benzonitrile], for which the IC50 by setting is: under setting [1], 0.62 µM; under setting [3], under 1 µM.

Consider `CC[C@@H](N[C@H](C)CC(N)=O)c1ccc(OC)c(C(=O)c2ccc(N)nc2)c1F` [Example 253, (3R)-3-{[(1R)-1-{3-[(6-aminopyridin-3-yl)carbonyl]-2-fluoro-4-methoxyphenyl}propyl]amino}butanamide], for which the IC50 by setting is: under setting [1], 1.4 µM; under setting [3], 1 to 5 µM.

Take `CC[C@H](N[C@@H](C)CC(=O)NCCN)c1ccc(Cl)c(C(=O)c2ccccc2)c1F` [Example 89, (3S)-N-(2-aminoethyl)-3-{[(1S)-1-(3-benzoyl-4-chloro-2-fluorophenyl)propyl]-amino}butanamide]: the inhibition at 0.03 µM came to 54%.

In the case of `CC[C@@H](N[C@H](C)CC(N)=O)c1ccc(Cl)c(C(=O)c2cccc(C(=O)O)c2)c1F` [Example 123, 3-({3-[(1R)-1-{[(2R)-1-carbamoylpropan-2-yl]amino}propyl]-6-chloro-2-fluorophenyl}carbonyl)-benzoic acid], the IC50 is 3.2 µM under setting [1] and 1 to 5 µM under setting [3].

Regarding `CC[C@@H](N[C@H](C)CC(N)=O)c1ccc(Cl)c(C(=O)c2ccns2)c1F` [Example 109, (3R)-3-{[(1R)-1-{4-chloro-2-fluoro-3-[(1,2-thiazol-5-yl)carbonyl]phenyl}propyl]-amino}butanamide], the IC50 under setting [1] is 0.47 µM.

`CC[C@@H](N)c1ccc(Cl)c(C(=O)c2ccc(N)cn2)c1F` [Example 5, 6-({3-[(1R)-1-aminopropyl]-6-chloro-2-fluorophenyl}carbonyl)-pyridin-3-amine] displayed an inhibition at 3 µM of 55%. For the same compound, the IC50 under setting [3] was 1 to 5 µM.

`CC[C@@H](NCCn1cccn1)c1ccc(Cl)c(C(=O)c2cccnc2)c1F` [Example 306, [(1R)-1-{4-chloro-2-fluoro-3-[(pyridin-3-yl)carbonyl]phenyl}propyl] [2-(1H-pyrazol-1-yl)ethyl] amine]: testing at 100 µM (@ 100 uM) gave an inhibition of 59%. Under setting [2], the IC50 was under 30 µM.
